Consider eleven compounds from patent publication EP4667483A1, “HUMAN TRANSFERRIN RECEPTOR-BINDING PEPTIDE” (JCR Pharmaceuticals Co., Ltd., priority 2023, dated 2024).

Holding throughout (type): binding
Assay [1] addresses T1, human transferrin receptor (hTfR) (Homo sapiens, UniProt P02786). The experiment in a line: SPR measurement under pH 7.4 conditions (Biacore T200, CM3 chip, hTfR captured by His Tag antibody). To be noted: SPR, pH 7.4; read-out: hTfR SPR pH7.4 KD.
Assay [2] addresses T1, human transferrin receptor (hTfR). Nature of the assay: SPR measurement under pH 6.0 conditions (Biacore T200, NTA chip, immobilized hTfR). The note with it: SPR, pH 6.0; read-out: hTfR SPR pH6.0 KD. On the technique in general: Surface plasmon resonance follows binding to a sensor surface in real time, without labels.
For assay [3] the target is unchanged. Nature of the assay: Evaluation of pH dependence (ratio of SPR koff or KD at pH 6.0 to pH 7.4). The note with it: ratio of koff at pH 6.0 to pH 7.4. The protocol:
The ratio of the calculated koff or KD values under pH 6.0 conditions to those under pH 7.4 conditions was calculated to check pH dependency.

Numbered stars: 1 amine (or outer) side, 2 acyl side, 3 side chain; on linkers, the order of the positions; unused ones are H or OH. Bridge positions count the residues as written; N and C are the ends. Square brackets hold non-standard residues; d marks the D form. Peptide text beside a SMILES is read from it. * marks the point of attachment. Trp(1-CH2COOH) = N[C@@H](Cc1cn(CC(=O)O)c2ccccc12)C(=O)O; NMePhe(4-COOH) = CN[C@@H](Cc1ccc(C(=O)O)cc1)C(=O)O; Nle(6-morpholino) = N[C@@H](CCCCN1CCOCC1)C(=O)O; X2 = O=C([C@H](Cc1cn(CCO)c2ccccc12)N[*:1])[*:2]; Phe(3-COOH) = N[C@@H](Cc1cccc(C(=O)O)c1)C(=O)O; NH(CH2CH2O)8Me = COCCOCCOCCOCCOCCOCCOCCOCCN*; NMePhe(3-Cl) = CN[C@@H](Cc1cccc(Cl)c1)C(=O)O; 3Pal(6-NH2) = Nc1ccc(C[C@H](N)C(=O)O)cn1; NMeY = CN[C@@H](Cc1ccc(O)cc1)C(=O)O; Nva(3-Et) = CCC(CC)[C@H](N)C(=O)O; NH(CH2CH2O)4Me = COCCOCCOCCOCCN*; hArg = N=C(N)NCCCC[C@H](N)C(=O)O; 4Pal = N[C@@H](Cc1ccncc1)C(=O)O; PEG4 = NCCOCCOCCOCCOCCC(=O)O; Carboxymethyl = O=C(O)C*

T1 sequence (P02786 whole entry): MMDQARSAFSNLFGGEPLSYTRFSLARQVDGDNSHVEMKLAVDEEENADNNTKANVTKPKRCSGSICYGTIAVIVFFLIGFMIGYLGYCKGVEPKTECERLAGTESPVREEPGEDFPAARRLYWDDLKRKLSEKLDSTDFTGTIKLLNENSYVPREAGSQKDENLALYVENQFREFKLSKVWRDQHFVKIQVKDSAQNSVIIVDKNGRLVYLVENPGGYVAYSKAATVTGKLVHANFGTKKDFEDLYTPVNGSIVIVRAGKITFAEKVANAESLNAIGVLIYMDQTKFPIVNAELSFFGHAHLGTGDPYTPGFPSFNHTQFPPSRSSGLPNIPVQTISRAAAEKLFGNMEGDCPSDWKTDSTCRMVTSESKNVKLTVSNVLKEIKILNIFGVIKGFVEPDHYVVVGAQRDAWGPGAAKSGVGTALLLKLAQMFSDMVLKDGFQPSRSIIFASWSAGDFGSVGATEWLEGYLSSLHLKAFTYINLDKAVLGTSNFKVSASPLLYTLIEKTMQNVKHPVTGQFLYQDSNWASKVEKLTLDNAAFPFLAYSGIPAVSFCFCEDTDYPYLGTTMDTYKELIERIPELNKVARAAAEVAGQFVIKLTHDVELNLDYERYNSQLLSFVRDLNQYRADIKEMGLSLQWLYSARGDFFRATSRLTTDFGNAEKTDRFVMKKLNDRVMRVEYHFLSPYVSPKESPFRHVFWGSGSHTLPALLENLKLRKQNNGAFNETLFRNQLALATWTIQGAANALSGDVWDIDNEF

For orientation: Kd means a measure of binding affinity in units of concentration. `CC[C@H](C)[C@@H]1NC(=O)[C@H](Cc2ccc(OCC(=O)O)cc2)NC(=O)[C@H](Cc2ccc(O)cc2)NC(=O)[C@H](CC(N)=O)NC(=O)[C@H](Cc2cn(CC(=O)O)c3ccccc23)NC(=O)[C@H](C(C)C)NC(=O)[C@H](Cc2cccc(Cl)c2)N(C)C(=O)[C@H](C(C)C)NC(=O)[C@H](C)NC(=O)CSC[C@@H](C(=O)NCCOCCOCCOCCOCCC(N)=O)NC(=O)[C@H](Cc2ccc(O)cc2)N(C)C(=O)[C@H](Cc2ccncc2)NC(=O)[C@H](CCCCN2CCOCC2)NC(=O)[C@H](CCCCN2CCOCC2)NC(=O)[C@H]([C@@H](C)CC)NC1=O` [compound 69] ({CH2CO}-AV[NMePhe(3-Cl)]V[Trp(1-CH2COOH)]NYY(Carboxymethyl)II[Nle(6-morpholino)][Nle(6-morpholino)][4Pal][NMeY]C[PEG4]-NH2; thioether N-15): the values for the Kd in assay [1] and in assay [2] were 8.57 nM and 33.5 nM, respectively. Further, the “dependency koff pH6.0/7.4” value in assay [3] is listed as 9.63.
The corresponding values for `CC[C@H](C)[C@@H]1NC(=O)[C@H](Cc2ccc(OCC(=O)O)cc2)NC(=O)[C@H](Cc2ccc(N)nc2)NC(=O)[C@H](CC(N)=O)NC(=O)[C@H](Cc2c[nH]c3ccccc23)NC(=O)[C@H](C(C)C)NC(=O)[C@H](Cc2cccc(Cl)c2)N(C)C(=O)[C@H](C(C)C)NC(=O)[C@H](C)NC(=O)CSC[C@@H](C(=O)NCCOCCOCCOCCOCCC(N)=O)NC(=O)[C@H](Cc2ccc(O)cc2)N(C)C(=O)[C@H](Cc2cccc(C(=O)O)c2)NC(=O)[C@H](CCCNC(=N)N)NC(=O)[C@H](CCC(=O)NCCOCCOCCOCCOC)NC(=O)[C@H]([C@@H](C)CC)NC1=O` [compound 70] ({CH2CO}-AV[NMePhe(3-Cl)]VWN[3Pal(6-NH2)]Y(Carboxymethyl)IIE(NH(CH2CH2O)4Me)R[Phe(3-COOH)][NMeY]C[PEG4]-NH2; thioether N-15) are 6.85 nM, 42.4 nM and 20.00.
The matching figures for `CC[C@H](C)[C@@H]1NC(=O)[C@H](Cc2ccc(OCC(=O)O)cc2)NC(=O)[C@H](Cc2ccc(O)cc2)NC(=O)[C@H](CC(N)=O)NC(=O)[C@H](Cc2cn(CC(=O)O)c3ccccc23)NC(=O)[C@H](C(C)C)NC(=O)[C@H](Cc2cccc(Cl)c2)N(C)C(=O)[C@H](C(C)C)NC(=O)[C@H](C)NC(=O)CSC[C@@H](C(=O)NCCOCCOCCOCCOCCC(N)=O)NC(=O)[C@H](Cc2ccc(O)cc2)N(C)C(=O)[C@H](Cc2cccc(C(=O)O)c2)NC(=O)[C@H](CCCNC(=N)N)NC(=O)[C@H](CCC(N)=O)NC(=O)[C@H](CCCCNC(=N)N)NC1=O` [compound 71] ({CH2CO}-AV[NMePhe(3-Cl)]V[Trp(1-CH2COOH)]NYY(Carboxymethyl)I[hArg]QR[Phe(3-COOH)][NMeY]C[PEG4]-NH2; thioether N-15): 18 nM, 75.2 nM and 12.78.
The matching figures for `CC[C@H](C)[C@@H]1NC(=O)[C@H](Cc2ccc(OCC(=O)O)cc2)NC(=O)[C@H](Cc2ccc(O)cc2)NC(=O)[C@H](CC(N)=O)NC(=O)[C@H](Cc2cn(CCO)c3ccccc23)NC(=O)[C@H](C(C)C)NC(=O)[C@H](Cc2cccc(Cl)c2)N(C)C(=O)[C@H](C(C)C)NC(=O)[C@H](C)NC(=O)CSC[C@@H](C(=O)NCCOCCOCCOCCOCCC(N)=O)NC(=O)[C@H](Cc2ccc(O)cc2)N(C)C(=O)[C@H](Cc2cccc(C(=O)O)c2)NC(=O)[C@H](CCCNC(=N)N)NC(=O)[C@H](CCC(N)=O)NC(=O)[C@H]([C@@H](C)CC)NC1=O` [compound 73]: 1.85 nM, 4.78 nM and 7.54.
`CC[C@H](C)[C@@H]1NC(=O)[C@H](Cc2ccc(OCC(=O)O)cc2)NC(=O)[C@H](Cc2ccc(O)cc2)NC(=O)[C@H](CC(=O)NC)NC(=O)[C@H](Cc2c[nH]c3ccccc23)NC(=O)[C@H](C(C)C)NC(=O)[C@H](Cc2cccc(Cl)c2)N(C)C(=O)[C@H](C(C)C)NC(=O)[C@H](C)NC(=O)CSC[C@@H](C(=O)NCCOCCOCCOCCOCCC(N)=O)NC(=O)[C@H](Cc2ccc(O)cc2)N(C)C(=O)[C@H](Cc2cccc(C(=O)O)c2)NC(=O)[C@H](CCCNC(=N)N)NC(=O)[C@H](CCC(N)=O)NC(=O)[C@H]([C@@H](C)CC)NC1=O` [compound 74] ({CH2CO}-AV[NMePhe(3-Cl)]VWD(NHMe)YY(Carboxymethyl)IIQR[Phe(3-COOH)][NMeY]C[PEG4]-NH2; thioether N-15): the Kd in assay [1] amounted to 45.3 nM; in assay [2], 76.2 nM. In assay [3], the “dependency koff pH6.0/7.4” value came out at 3.53.
For the compound `CCC(CC)[C@@H]1NC(=O)[C@H](Cc2ccc(OCC(=O)O)cc2)NC(=O)[C@H](Cc2ccc(O)cc2)NC(=O)[C@H](CC(N)=O)NC(=O)[C@H](Cc2c[nH]c3ccccc23)NC(=O)[C@H](C(C)C)NC(=O)[C@H](Cc2cccc(Cl)c2)N(C)C(=O)[C@H](C(C)C)NC(=O)[C@H](C)NC(=O)CSC[C@@H](C(=O)NCCOCCOCCOCCOCCC(N)=O)NC(=O)[C@H](Cc2ccc(O)cc2)N(C)C(=O)[C@H](Cc2cccc(C(=O)O)c2)NC(=O)[C@H](CCCNC(=N)N)NC(=O)[C@H](CCC(N)=O)NC(=O)[C@H]([C@@H](C)CC)NC1=O` [compound 75] ({CH2CO}-AV[NMePhe(3-Cl)]VWNYY(Carboxymethyl)[Nva(3-Et)]IQR[Phe(3-COOH)][NMeY]C[PEG4]-NH2; thioether N-15), the equilibrium dissociation constant (Kd) in assay [1] was determined as 1.62 nM; in assay [2], 6.33 nM. Further, the “dependency koff pH6.0/7.4” value in assay [3] is reported as 34.44.
For the compound `CC[C@H](C)[C@@H]1NC(=O)[C@H](Cc2ccc(OCC(=O)O)cc2)NC(=O)[C@H](Cc2ccc(O)cc2)NC(=O)[C@H](CC(N)=O)NC(=O)[C@H](Cc2cn(CCO)c3ccccc23)NC(=O)[C@H](C(C)C)NC(=O)[C@H](Cc2cccc(Cl)c2)N(C)C(=O)[C@H](C(C)C)NC(=O)[C@H](C)NC(=O)CSC[C@@H](C(=O)NCCOCCOCCOCCOCCC(N)=O)NC(=O)[C@H](Cc2ccc(O)cc2)N(C)C(=O)[C@H](Cc2cccc(C(=O)O)c2)NC(=O)[C@H](CCCNC(=N)N)NC(=O)[C@H](CCC(N)=O)NC(=O)[C@H]([C@@H](C)O)NC1=O` [compound 76] ({CH2CO}-AV[NMePhe(3-Cl)]V[X2]NYY(Carboxymethyl)ITQR[Phe(3-COOH)][NMeY]C[PEG4]-NH2; thioether N-15), the dissociation constant (Kd) in assay [1] is 13 nM; in assay [2], 17 nM. Moreover, in assay [3], the “dependency koff pH6.0/7.4” value turned out to be 3.37.
The matching figures for `CCC(CC)[C@@H]1NC(=O)[C@H](Cc2ccc(OCC(=O)O)cc2)NC(=O)[C@H](Cc2ccc(N)nc2)NC(=O)[C@H](CC(N)=O)NC(=O)[C@H](Cc2c[nH]c3ccccc23)NC(=O)[C@H](C(C)C)NC(=O)[C@H](Cc2cccc(Cl)c2)N(C)C(=O)[C@H](C(C)C)NC(=O)[C@H](C)NC(=O)CSC[C@@H](C(=O)NCCOCCOCCOCCOCCC(N)=O)NC(=O)[C@H](Cc2ccc(O)cc2)N(C)C(=O)[C@H](Cc2cccc(C(=O)O)c2)NC(=O)[C@H](CCCNC(=N)N)NC(=O)[C@H](CCC(=O)NCCOCCOCCOCCOCCOCCOCCOCCOC)NC(=O)[C@H]([C@@H](C)CC)NC1=O` [compound 82] ({CH2CO}-AV[NMePhe(3-Cl)]VWN[3Pal(6-NH2)]Y(Carboxymethyl)[Nva(3-Et)]IE(NH(CH2CH2O)8Me)R[Phe(3-COOH)][NMeY]C[PEG4]-NH2; thioether N-15): 27.1 nM, 252 nM and 20.39.
The matching figures for `CCC(CC)[C@@H]1NC(=O)[C@H](Cc2ccc(OCC(=O)O)cc2)NC(=O)[C@H](Cc2ccc(N)nc2)NC(=O)[C@H](CC(N)=O)NC(=O)[C@H](Cc2cn(CC(=O)O)c3ccccc23)NC(=O)[C@H](C(C)C)NC(=O)[C@H](Cc2cccc(Cl)c2)N(C)C(=O)[C@H](C(C)C)NC(=O)[C@H](C)NC(=O)CSC[C@@H](C(=O)NCCOCCOCCOCCOCCC(N)=O)NC(=O)[C@H](Cc2ccc(O)cc2)N(C)C(=O)[C@H](Cc2cccc(C(=O)O)c2)NC(=O)[C@H](CCCCN2CCOCC2)NC(=O)[C@H](CCCCN2CCOCC2)NC(=O)[C@H]([C@@H](C)CC)NC1=O` [compound 83] ({CH2CO}-AV[NMePhe(3-Cl)]V[Trp(1-CH2COOH)]N[3Pal(6-NH2)]Y(Carboxymethyl)[Nva(3-Et)]I[Nle(6-morpholino)][Nle(6-morpholino)][Phe(3-COOH)][NMeY]C[PEG4]-NH2; thioether N-15): 43.7 nM, 144 nM and 32.62.
The matching figures for `CCC(CC)[C@@H]1NC(=O)[C@H](Cc2ccc(OCC(=O)O)cc2)NC(=O)[C@H](Cc2ccc(N)nc2)NC(=O)[C@H](CC(N)=O)NC(=O)[C@H](Cc2cn(CC(=O)O)c3ccccc23)NC(=O)[C@H](C(C)C)NC(=O)[C@H](Cc2cccc(Cl)c2)N(C)C(=O)[C@H](C(C)C)NC(=O)[C@H](C)NC(=O)CSC[C@@H](C(=O)NCCOCCOCCOCCOCCC(N)=O)NC(=O)[C@H](Cc2ccc(O)cc2)N(C)C(=O)[C@H](Cc2cccc(C(=O)O)c2)NC(=O)[C@H](CCCNC(=N)N)NC(=O)[C@H](CCC(N)=O)NC(=O)[C@H]([C@@H](C)CC)NC1=O` [compound 84] ({CH2CO}-AV[NMePhe(3-Cl)]V[Trp(1-CH2COOH)]N[3Pal(6-NH2)]Y(Carboxymethyl)[Nva(3-Et)]IQR[Phe(3-COOH)][NMeY]C[PEG4]-NH2; thioether N-15): 1910 nM, 219 nM and 17.42.
Consider `CCC(CC)[C@@H]1NC(=O)[C@H](Cc2ccc(OCC(=O)O)cc2)NC(=O)[C@H](Cc2ccc(N)nc2)NC(=O)[C@H](CC(N)=O)NC(=O)[C@H](Cc2cn(CC(=O)O)c3ccccc23)NC(=O)[C@H](C(C)C)NC(=O)[C@H](Cc2cccc(Cl)c2)N(C)C(=O)[C@H](C(C)C)NC(=O)[C@H](C)NC(=O)CSC[C@@H](C(=O)NCCOCCOCCOCCOCCC(N)=O)NC(=O)[C@H](Cc2ccc(C(=O)O)cc2)N(C)C(=O)[C@H](Cc2cccc(C(=O)O)c2)NC(=O)[C@H](CCCNC(=N)N)NC(=O)[C@H](CCC(N)=O)NC(=O)[C@H]([C@@H](C)CC)NC1=O` [compound 87] ({CH2CO}-AV[NMePhe(3-Cl)]V[Trp(1-CH2COOH)]N[3Pal(6-NH2)]Y(Carboxymethyl)[Nva(3-Et)]IQR[Phe(3-COOH)][NMePhe(4-COOH)]C[PEG4]-NH2; thioether N-15), for which the Kd in assay [1] came to 175 nM; in assay [2] it was 466 nM. The “dependency koff pH6.0/7.4” value in assay [3] is listed as 17.51.
